Experimental findings from ChEMBL document CHEMBL1201862, “PubChem BioAssay data set” (2004) are described below.

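Protocol summary: plate cells (96-well), add compound at 5 concentrations, incubate 48 h, interpolate endpoints linearly. GI50 = concentration required for 50% inhibition of growth.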 The source made the active and inactive calls. Cut-off read from the data, not from the text of the source: active = GI50 up to about 1.1 µM and inactive = higher.

Common to all, as to assay: NCI anticancer screen, dose series, 48 h
The subject of assay [1] is 786-0.
In assay [2] the test system is A498.
For assay [3], the system named is CCRF-CEM.
Assay [4] has as its system COLO 205.
The test system of assay [5] is DLD-1.
The test system of assay [6] is DMS-114.
In assay [7] the test system is EKVX.
Assay [8] relates to K562.
Assay [9] concerns MOLT-4.
The test system of assay [10] is Malme-3M.
Assay [11] has as its system NCI-H460.
In assay [12] the test system is RXF 393.
For assay [13], the system named is SF-539.
Assay [14] concerns SNB-78.
The subject of assay [15] is UACC-62.
The subject of assay [16] is CAKI-1.
Assay [17] concerns SR.

In the case of `Cc1nc(-n2nc(-c3ccccc3)cc2-c2ccccc2)sc1C(/C=C/c1ccc([N+](=O)[O-])cc1)=N/NC(=O)c1ccncc1`, the GI50 in assay [1] was 13.5 µM (inactive); in assay [2] it was 49.3 µM (inactive); in [3] it was 7.6 µM (inactive); in assay [4], 21.6 µM (inactive); in assay [5], 11.6 µM (inactive); in assay [6], 13.9 µM (inactive). In addition, the GI50 in assay [7] was 36.8 µM (inactive); in assay [8] it was 13.9 µM (inactive); in assay [9], 6.89 µM (inactive); in assay [10], 21.9 µM (inactive); in assay [11] it was 40 µM (inactive); in [12] it was 22.4 µM (inactive). Further, the GI50 in assay [13] is 13.1 µM (inactive); in [14], 17.3 µM (inactive); in assay [15] it was 19.4 µM (inactive).

Consider `O=c1[nH]c(Br)nc2c(N3CCCCC3)c[nH]c12`, for which the GI50 in assay [1], in assay [2], in assay [16], in [3], in assay [4] and in assay [5] was > 100 µM (inactive) each time. For the same compound, the GI50 in assay [6] was > 100 µM (inactive); in [7] it was > 100 µM (inactive); in assay [8], > 100 µM (inactive); in assay [9], 29.5 µM (inactive); in assay [10], > 100 µM (inactive); in assay [11] it was > 100 µM (inactive). Moreover, the GI50 in assay [12], in assay [13], in assay [14] and in assay [15] was > 100 µM (inactive) throughout.

`COc1cc(Cl)c2c3c(c(C(C)=O)oc13)CCC2`: the GI50 in assay [1], in assay [2], in [16], in [3], in assay [4] and in assay [5] was > 100 µM (inactive) each time. Also, the GI50 is > 100 µM (inactive) in assay [6]; > 100 µM (inactive) in assay [7]; > 100 µM (inactive) in assay [8]; > 100 µM (inactive) in [11]; 85.1 µM (inactive) in [12]; > 100 µM (inactive) in assay [13]. Further, the GI50 in [14] and in assay [15] was > 100 µM (inactive) in each case.

As to `CC(C)C1N2CCCCC2[C@@H]2c3[nH]c4ccccc4c3CCN12` (stereo not given in full), the GI50 in [1], in [2], in assay [16], in assay [3], in [4] and in assay [5] was > 100 µM (inactive) in each case. The GI50 in assay [6], in assay [7], in [8], in assay [9], in assay [11] and in [12] was > 100 µM (inactive) each time. For the same compound, the GI50 in [13], in [14] and in assay [15] was > 100 µM (inactive) each time.

For `COc1cc(/C=C\c2ccc(Br)cc2)cc(OC)c1OC`, the GI50 is 0.00043 µM (active) in assay [1]; 0.01 µM (active) in assay [2]; 0.01 µM (active) in assay [16]; 0.000352 µM (active) in assay [3]; 0.00486 µM (active) in [4]; 0.00324 µM (active) in assay [5]. Besides, the GI50 in [6] is 0.000986 µM (active); in assay [7], 0.00385 µM (active); in assay [8], 0.000386 µM (active); in assay [9] it was 0.000662 µM (active); in assay [10], 0.0024 µM (active); in assay [11], 0.01 µM (active). Moreover, the GI50 in assay [13] was 0.000463 µM (active); in assay [14], 0.000305 µM (active); in assay [17], 0.01 µM (active); in [15] it was 0.000404 µM (active).

With `CC(=O)NC(CCCCN(Cc1ccccc1)C(=O)N(C)N=O)C(=O)NCc1ccccc1` (stereo not given), the GI50 in [1] is > 100 µM (inactive); in assay [2], > 100 µM (inactive); in assay [16], > 100 µM (inactive); in assay [3], 59.6 µM (inactive); in [4], 88.3 µM (inactive); in assay [5] it was > 100 µM (inactive). Further, the GI50 in assay [6] was 43.6 µM (inactive); in assay [7], 90.4 µM (inactive); in [8], 61 µM (inactive); in assay [9], 39.6 µM (inactive); in assay [10], 82 µM (inactive); in assay [11], 88.7 µM (inactive). For the same compound, the GI50 was 72.1 µM (inactive) in assay [12], > 100 µM (inactive) in [13], > 100 µM (inactive) in [14] and > 100 µM (inactive) in [15].

Regarding `CC[C@@H](C(=O)[C@@H](C)[C@@H](O)[C@H](C)CCc1ccc(C)c(O)c1C(=O)O)[C@H]1O[C@](CC)([C@H]2CC[C@](O)(CC)[C@H](C)O2)C[C@@H]1C` [LASALOCID A SODIUM], the GI50 in assay [1] is 2.9 µM (inactive); in assay [2], 0.573 µM (active); in assay [16], 1.84 µM (inactive); in [3], 0.695 µM (active); in [4], 1.1 µM (active); in assay [5] it was 3.61 µM (inactive). Also, the GI50 was 0.946 µM (active) in assay [6]; 2.16 µM (inactive) in [7]; 0.664 µM (active) in assay [8]; 1.1 µM (active) in assay [9]; 1.05 µM (active) in [10]; 2.04 µM (inactive) in assay [11]. Further, the GI50 in assay [13] was 1.15 µM (inactive); in assay [14], 3.13 µM (inactive); in assay [17] it was 1.12 µM (inactive); in assay [15], 1.81 µM (inactive).

Regarding `O=C(Cc1nc2ccccc2o1)C(=O)Nc1cccc(C(F)(F)F)c1`, the GI50 in [1], in assay [2], in assay [16], in assay [3], in assay [4] and in assay [5] was > 100 µM (inactive) each time. The GI50 in assay [6], in assay [7], in assay [8], in [9], in assay [10] and in assay [11] was > 100 µM (inactive) in each case. The GI50 in [13], in assay [14] and in [15] was > 100 µM (inactive) throughout.

As to `CCOc1ccccc1NC(=O)/C=C1\NC(=O)CS1`, the GI50 in [1] is > 100 µM (inactive); in assay [2], > 100 µM (inactive); in [16], > 100 µM (inactive); in [3] it was 69 µM (inactive); in [4], > 100 µM (inactive); in assay [5] it was > 100 µM (inactive). Also, the GI50 was > 100 µM (inactive) in assay [6]; > 100 µM (inactive) in assay [7]; > 100 µM (inactive) in [8]; > 100 µM (inactive) in assay [9]; 50.5 µM (inactive) in assay [10]; > 100 µM (inactive) in assay [11]. Further, the GI50 in [12], in [13], in assay [14] and in assay [15] was > 100 µM (inactive) each time.

Consider `O=c1[nH]c2cc(-c3ccccc3)nc-2nn1-c1c(Cl)cc(Cl)cc1Cl`, for which the GI50 in assay [1] is 30.8 µM (inactive); in assay [2], 33 µM (inactive); in [16], 27.5 µM (inactive); in assay [3] it was 28.6 µM (inactive); in assay [4], 15.1 µM (inactive); in assay [5], 37.5 µM (inactive). Besides, the GI50 was > 100 µM (inactive) in assay [6]; 24.9 µM (inactive) in assay [7]; 41.1 µM (inactive) in assay [8]; 22.5 µM (inactive) in assay [9]; 24.4 µM (inactive) in assay [10]; 30.4 µM (inactive) in [11]. In addition, the GI50 in [13] is 19.4 µM (inactive); in assay [14], 37.5 µM (inactive); in assay [17], 23.7 µM (inactive); in assay [15] it was 17.5 µM (inactive).

Take `C=C=C(C(=O)OC)[S+]([O-])c1ccccc1[N+](=O)[O-]` (stereo not given): the GI50 in assay [1] was > 100 µM (inactive); in [2] it was > 100 µM (inactive); in assay [16], > 100 µM (inactive); in assay [3] it was 24.7 µM (inactive); in assay [4], > 100 µM (inactive); in assay [6], > 100 µM (inactive). The GI50 in assay [7] is > 100 µM (inactive); in [8] it was 59.2 µM (inactive); in [9] it was > 100 µM (inactive); in assay [10], > 100 µM (inactive); in assay [11] it was > 100 µM (inactive); in assay [12], > 100 µM (inactive). The GI50 in assay [13], in [14] and in assay [15] was > 100 µM (inactive) each time.

For the compound `CC(=O)CCCCO`, the GI50 in assay [1], in assay [2], in assay [16], in assay [3], in [4] and in [6] was > 100 µM (inactive) in each case. Besides, the GI50 in [7], in assay [8], in assay [9], in assay [10], in assay [11] and in assay [12] was > 100 µM (inactive) throughout. In addition, the GI50 in assay [13], in assay [14] and in [15] was > 100 µM (inactive) in each case.

As to `COCCCNC(=O)C1C(=O)C(=O)N(CCCOC)C1=O` (stereo not given), the GI50 in [1], in assay [2], in assay [16], in assay [3], in assay [4] and in assay [5] was > 100 µM (inactive) in each case. Moreover, the GI50 in [6], in assay [7], in assay [8], in assay [9], in [10] and in [13] was > 100 µM (inactive) each time. In addition, the GI50 in assay [14], in [17] and in assay [15] was > 100 µM (inactive) each time.
